Experimental data reported in patent publication US20240409585A1, “MACROCYCLIC IMMUNOMODULATORS” (priority 2021, published 2024).
Read-outs that look alike come from different tables or passages of the source. Numbered stars: 1 amine (or outer) side, 2 acyl side, 3 side chain; on linkers, the order of the positions; unused ones are H or OH. Bridge positions count the residues as written; N and C are the ends. Square brackets hold non-standard residues; d marks the D form. Peptide text beside a SMILES is read from it. * marks the point of attachment. X45 = CNS(=O)(=O)c1cccc(-c2ccc(C[C@H](N[*:1])C(=O)[*:2])cc2)c1; Bip(4'-COOH) = N[C@@H](Cc1ccc(-c2ccc(C(=O)O)cc2)cc1)C(=O)O; Bip(4'-NHAc) = CC(=O)Nc1ccc(-c2ccc(C[C@H](N)C(=O)O)cc2)cc1; Phe(3-CF3) = N[C@@H](Cc1cccc(C(F)(F)F)c1)C(=O)O; Ala(morpholin-4-yl) = N[C@@H](CN1CCOCC1)C(=O)O; Phe(4-CONH2) = NC(=O)c1ccc(C[C@H](N)C(=O)O)cc1; Phe(4-COOH) = N[C@@H](Cc1ccc(C(=O)O)cc1)C(=O)O; Bip = N[C@@H](Cc1ccc(-c2ccccc2)cc1)C(=O)O; Abu(3R-NH2) = C[C@@H](N)[C@H](N)C(=O)O; Phe(3-Me) = Cc1cccc(C[C@H](N)C(=O)O)c1; Abu(3S-NH2) = C[C@H](N)[C@H](N)C(=O)O; Val(3-OH) = CC(C)(O)[C@H](N)C(=O)O; hPhe = N[C@@H](CCc1ccccc1)C(=O)O; Cha = N[C@@H](CC1CCCCC1)C(=O)O; Carboxymethyl = O=C(O)C*; NMeA = CN[C@@H](C)C(=O)O; Orn = NCCC[C@H](N)C(=O)O; Dab = NCC[C@H](N)C(=O)O; Dap = NC[C@H](N)C(=O)O; X42 = CS(=O)(=O)O*; X43 = c1coc(N*)n1; X9 = O=C(CCF)*

Target: T1, Alexa fluor-647 labeled human PD-L1-Ig binding to Jurkat cell line over-expressing human PD-1 (Homo sapiens, UniProt Q15116)
T1 construct: expressed in transfected cells; host or cells: Jurkat
Assay: Jurkat-PD-1 Cell Binding High-Content Screening Assay (CBA): Method 3 (Alexa fluor-647 labeled PD-L1-Ig)
Details: Jurkat-PD-1 cells, Alexa fluor-647 labeled PD-L1-Ig 177 nM
Protocol: Jurkat-PD-1 Cell Binding High-Content Screening Assay (CBA): Method 3
Alexa fluor-647 was covalently linked to the Ig epitope tag of human PD-L1-Ig and fluorescently labeled PD-L1-Ig was used for the binding studies with a Jurkat cell line over-expressing human PD-1. Briefly, 2.5×10^4 Jurkat-hPD-1 cells were seeded into 384 well plates in 20 μl of RPMI supplemented with 10% fetal calf serum. 12.5 nl of compound was added to cells followed by incubation at 37° C. for 2 hours. Then, 10 ul of Alexa fluor-647 labeled PD-L1-Ig (177 nM final), diluted in RPMI supplemented with 10% fetal calf serum was added to the cells and incubated for 1 hour. Cells were then fixed with 4% paraformaldehyde containing 10 μg/ml Hoechst 33342 and then washed 3× in 100 ul PBS and 100 ul of PBS was added in the final step. Data was collected using the Operetta High Content Imager and the data was analyzed using the columbus software.

[1] = head μM, read-out: CBA Method 3 μM

T1 sequence (Q15116 25-288): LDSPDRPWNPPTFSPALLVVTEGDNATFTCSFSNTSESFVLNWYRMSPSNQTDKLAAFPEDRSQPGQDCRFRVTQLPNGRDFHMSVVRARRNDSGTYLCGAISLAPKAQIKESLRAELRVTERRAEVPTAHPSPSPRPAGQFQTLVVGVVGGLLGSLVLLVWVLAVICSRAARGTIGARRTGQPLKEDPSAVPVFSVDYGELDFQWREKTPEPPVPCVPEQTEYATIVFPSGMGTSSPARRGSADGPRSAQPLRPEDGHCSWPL

| IC50 [1] | IC50 (nM, read-out: CBA Method 3) | Structure (SMILES) |
| --- | --- | --- |
| 0.02 µM |  | CC(C)C[C@H]1NC(=O)[C@H](C)N(C)C(=O)[C@H](Cc2ccc(C(=O)O)cc2)NC(=O)[C@H](Cc2ccc(-c3ccccc3)cc2)NC(=O)[C@H](Cc2ccc(C(=O)O)cc2)NC(=O)[C@H](Cc2cccc(C(F)(F)F)c2)NC(=O)[C@H](CC(=O)O)NC(=O)[C@H](Cc2ccc(C(=O)O)cc2)NC(=O)[C@H](CN2CCOCC2)NC(=O)CSC[C@@H](C(=O)N[C@@H](CCN)C(N)=O)NC(=O)[C@H](CNC(=O)CCF)NC(=O)[C@H](C(C)C)NC(=O)[C@H](CC2CCCCC2)NC(=O)[C@H](CCN)NC1=O [Example 5233] ({CH2CO}-[Ala(morpholin-4-yl)][Phe(4-COOH)]D[Phe(3-CF3)][Phe(4-COOH)][Bip][Phe(4-COOH)][NMeA][dL][Dab][Cha]V[Dap](X9)C[Dab]-NH2; thioether N-14) |
| 0.02 µM |  | CC(=O)Nc1ccc(-c2ccc(C[C@@H]3NC(=O)[C@H](Cc4cccc(C)c4)NC(=O)[C@H](CC(=O)O)NC(=O)[C@H](Cc4ccc(-c5ccc(C(=O)O)cc5)cc4)NC(=O)[C@H](CN4CCOCC4)NC(=O)CSC[C@@H](C(=O)N[C@@H](CCN)C(N)=O)NC(=O)[C@H](CCC(=O)O)NC(=O)[C@H](C(C)C)NC(=O)[C@H](CC4CCCCC4)NC(=O)[C@H](CC(N)=O)NC(=O)[C@@H](CC(C)C)NC(=O)[C@H](C)N(C)C(=O)[C@H](Cc4ccc(OCC(=O)O)cc4)NC(=O)[C@H](Cc4ccc(-c5ccccc5)cc4)NC3=O)cc2)cc1 [Example 5127] ({CH2CO}-[Ala(morpholin-4-yl)][Bip(4'-COOH)]D[Phe(3-Me)][Bip(4'-NHAc)][Bip]Y(Carboxymethyl)[NMeA][dL]N[Cha]VEC[Dab]-NH2; thioether N-14) |
| 0.1 µM |  | CC(=O)Nc1ccc(-c2ccc(C[C@@H]3NC(=O)[C@H](Cc4cccc(C(F)(F)F)c4)NC(=O)[C@H](CC(=O)OS(C)(=O)=O)NC(=O)[C@H](Cc4ccc(C(=O)O)cc4)NC(=O)[C@H]([C@H](C)N)NC(=O)CSC[C@@H](C(=O)N[C@@H](CCN)C(N)=O)NC(=O)[C@H](CC(N)=O)NC(=O)[C@H](C(C)C)NC(=O)[C@H](CC4CCCCC4)NC(=O)[C@H](CCN)NC(=O)[C@@H](CC(C)C)NC(=O)[C@H](C)N(C)C(=O)[C@H](Cc4ccc(C(N)=O)cc4)NC(=O)[C@H](Cc4ccc(-c5ccccc5)cc4)NC3=O)cc2)cc1 [Example 5112] ({CH2CO}-[Abu(3S-NH2)][Phe(4-COOH)]D(X42)[Phe(3-CF3)][Bip(4'-NHAc)][Bip][Phe(4-CONH2)][NMeA][dL][Dab][Cha]VNC[Dab]-NH2; thioether N-14) |
| 0.33 µM |  | CC(C)C[C@H]1NC(=O)[C@H](C)N(C)C(=O)[C@H](CCCN)NC(=O)[C@H](Cc2ccc(-c3ccccc3)cc2)NC(=O)[C@H](Cc2ccc(-c3ccc(C(=O)O)cc3)cc2)NC(=O)[C@H](Cc2cccc(C(F)(F)F)c2)NC(=O)[C@H](CC(=O)Nc2ncco2)NC(=O)[C@H](Cc2ccc(-c3ccc(C(=O)O)cc3)cc2)NC(=O)[C@H](Cc2ccc(OCC(=O)O)cc2)NC(=O)CSC[C@@H](C(=O)N[C@@H](CCN)C(N)=O)NC(=O)[C@H](CC(N)=O)NC(=O)[C@H](C(C)C)NC(=O)[C@H](CC2CCCCC2)NC(=O)[C@H](CCN)NC1=O [Example 5116] ({CH2CO}-Y(Carboxymethyl)[Bip(4'-COOH)]D(X43)[Phe(3-CF3)][Bip(4'-COOH)][Bip][Orn][NMeA][dL][Dab][Cha]VNC[Dab]-NH2; thioether N-14) |
|  | 0.0063 µM | CC(=O)Nc1ccc(-c2ccc(C[C@@H]3NC(=O)[C@H](Cc4cccc(C(F)(F)F)c4)NC(=O)[C@H](CC(=O)O)NC(=O)[C@H](Cc4ccc(C(=O)O)cc4)NC(=O)[C@H]([C@@H](C)N)NC(=O)CSC[C@@H](C(=O)N[C@@H](CCN)C(N)=O)NC(=O)[C@H](CCC(=O)O)NC(=O)[C@H](C(C)C)NC(=O)[C@H](CC4CCCCC4)NC(=O)[C@H](CCN)NC(=O)[C@@H](CC(C)C)NC(=O)[C@H](C)N(C)C(=O)[C@H](Cc4ccc(C(=O)O)cc4)NC(=O)[C@H](Cc4ccc(-c5ccccc5)cc4)NC3=O)cc2)cc1 [Example 5154] ({CH2CO}-[Abu(3R-NH2)][Phe(4-COOH)]D[Phe(3-CF3)][Bip(4'-NHAc)][Bip][Phe(4-COOH)][NMeA][dL][Dab][Cha]VEC[Dab]-NH2; thioether N-14) |

Continued, molecule first:

| Structure (SMILES) | IC50 [1] | IC50 (nM, read-out: CBA Method 3) |
| --- | --- | --- |
| CC(C)C[C@H]1NC(=O)[C@H](C)N(C)C(=O)[C@H](CCC(N)=O)NC(=O)[C@H](Cc2ccc(-c3ccccc3)cc2)NC(=O)[C@H](CCc2ccccc2)NC(=O)[C@H](Cc2cccc(C(F)(F)F)c2)NC(=O)[C@H](CC(=O)O)NC(=O)[C@H](Cc2ccc(OCC(=O)O)cc2)NC(=O)[C@H](CC2CCCCC2)NC(=O)CSC[C@@H](C(=O)N[C@@H](CCN)C(N)=O)NC(=O)[C@H](CO)NC(=O)[C@H](C(C)(C)O)NC(=O)[C@H](CC2CCCCC2)NC(=O)[C@H](CCN)NC1=O [Example 5226] ({CH2CO}-[Cha]Y(Carboxymethyl)D[Phe(3-CF3)][hPhe][Bip]Q[NMeA][dL][Dab][Cha][Val(3-OH)]SC[Dab]-NH2; thioether N-14) | 0.07 µM |  |
| Cc1cccc(C[C@@H]2NC(=O)[C@H](CC(=O)O)NC(=O)[C@H](Cc3ccc(OCC(=O)O)cc3)NC(=O)[C@H](CC3CCCCC3)NC(=O)CSC[C@@H](C(=O)N[C@@H](CCN)C(N)=O)NC(=O)[C@H](Cc3cnc[nH]3)NC(=O)[C@H](C(C)(C)O)NC(=O)[C@H](CC3CCCCC3)NC(=O)[C@H](CCN)NC(=O)[C@@H](CC(C)C)NC(=O)[C@H](C)N(C)C(=O)[C@H](CCC(N)=O)NC(=O)[C@H](Cc3ccc(-c4ccccc4)cc3)NC(=O)[C@H](CCc3ccccc3)NC2=O)c1 [Example 5277] ({CH2CO}-[Cha]Y(Carboxymethyl)D[Phe(3-Me)][hPhe][Bip]Q[NMeA][dL][Dab][Cha][Val(3-OH)]HC[Dab]-NH2; thioether N-14) | 0.03 µM |  |
| CC(C)C[C@H]1NC(=O)[C@H](C)N(C)C(=O)[C@H](CCC(N)=O)NC(=O)[C@H](Cc2ccc(-c3ccccc3)cc2)NC(=O)[C@H](CCc2ccccc2)NC(=O)[C@H](Cc2cccc(C(F)(F)F)c2)NC(=O)[C@H](CC(=O)N[C@@H](CC(=O)O)C(=O)O)NC(=O)[C@H](Cc2ccc(OCC(=O)O)cc2)NC(=O)[C@H](CN2CCOCC2)NC(=O)CSC[C@@H](C(=O)N[C@@H](CCN)C(N)=O)NC(=O)[C@H](CCCN)NC(=O)[C@H](C(C)C)NC(=O)[C@H](CC2CCCCC2)NC(=O)[C@H](CCN)NC1=O [Example 5280] ({CH2CO}-[Ala(morpholin-4-yl)]Y(Carboxymethyl)D(Asp)[Phe(3-CF3)][hPhe][Bip]Q[NMeA][dL][Dab][Cha]V[Orn]C[Dab]-NH2; thioether N-14) |  | 0.0046 µM |
| CNS(=O)(=O)c1cccc(-c2ccc(C[C@@H]3NC(=O)[C@H](Cc4cccc(C)c4)NC(=O)[C@H](CC(=O)O)NC(=O)[C@H](Cc4ccc(OCC(=O)O)cc4)NC(=O)[C@H](CN4CCOCC4)NC(=O)CSC[C@@H](C(=O)N[C@@H](CCN)C(N)=O)NC(=O)[C@H](CCCN)NC(=O)[C@H](C(C)C)NC(=O)[C@H](CC4CCCCC4)NC(=O)[C@H](CCN)NC(=O)[C@@H](CC(C)C)NC(=O)[C@H](C)N(C)C(=O)[C@H](CCC(N)=O)NC(=O)[C@H](Cc4ccc(-c5ccccc5)cc4)NC3=O)cc2)c1 [Example 5108] ({CH2CO}-[Ala(morpholin-4-yl)]Y(Carboxymethyl)D[Phe(3-Me)][X45][Bip]Q[NMeA][dL][Dab][Cha]V[Orn]C[Dab]-NH2; thioether N-14) |  | 0.0073 µM |
